The values that follow come from US8785488B2 (Exelixis Patent Company LLC, priority 2009, dated 2014).

The target in this test is T1, human TGR5 (h-TGR5) (Homo sapiens, UniProt Q8TDU6).
T1 construct: expressed in transfected cells
T1 sequence (Q8TDU6 1-330): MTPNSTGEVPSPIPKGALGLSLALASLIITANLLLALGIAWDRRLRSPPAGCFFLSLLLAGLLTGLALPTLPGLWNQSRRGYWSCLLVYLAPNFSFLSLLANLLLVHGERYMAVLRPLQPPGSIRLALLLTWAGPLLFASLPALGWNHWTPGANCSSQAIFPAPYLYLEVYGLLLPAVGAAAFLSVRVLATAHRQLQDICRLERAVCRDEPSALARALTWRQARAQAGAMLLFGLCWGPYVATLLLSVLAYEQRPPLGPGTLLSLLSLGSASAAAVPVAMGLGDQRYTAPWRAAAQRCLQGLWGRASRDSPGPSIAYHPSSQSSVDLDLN
The experiment in a line: TGR5/CRE-Luciferiase Assay (HEK 293 hTGR5/CRE-Luc cells). Format: cell-based. The procedure:
Compounds were serially diluted in DMEM containing 5% DMSO and 5 μL of compound or media alone was transferred to each well and plates were incubated for 6 hours. Following incubation, 30 μL of lysis/luciferase buffer was added to each well. The luciferase activity was then measured on the EnVision™ plate reader and the dose response data was analyzed using ActivityBase.
In the following tables, EC50 values determined according to the TGR5 cAMP Assay described herein (cAMP); EC50 values determined according to the TGR5/CRE-Luciferiase Assay described herein (CRE-Luc). […] The following compounds in Tables 1 and 2 were made by using procedures described in the above Schemes and Examples, and, where applicable, by making any necessary substitutions of known materials that one skilled in the art would ordinarily understand how to do.

The mark [1] stands for this setting: h-TGR5 CRE-Luc EC50, Table 1, read-out: CRE-Luc (EC50).
The mark [2] stands for this setting: HEK 293 hTGR5/CRE-Luc cells, 6 hours incubation, luciferase activity, Table 2, read-out: h-TGR5CRE-Luc EC50 (CRE-Luc).

pEC50: −log10 of the molar value. Like-named read-outs stand apart in the source and are kept apart here.

For the compound `CC(C)(c1ccc(F)cc1)c1cnc(SCc2c(F)cccc2Cl)n1-c1ccc(F)cc1` [2-{[(2-chloro-6-fluorophenyl)methyl]thio}-1-(4-fluorophenyl)-5-[1-(4-fluorophenyl)-1-methylethyl]-1H-imidazole], the pEC50 (usually the negative decadic logarithm of the EC50, by convention in mol/L) under setting [1] was 6.00 to 7.00.
Same read-out and setting: as for `CC(C)(c1ccc(Cl)c(Cl)c1)c1cnc(OCC2CCN(c3nnn[nH]3)CC2)n1-c1ccc(F)cc1` [4-[({5-[1-(3,4-dichlorophenyl)-1-methylethyl]-1-(4-fluorophenyl)-1H-imidazol-2-yl}oxy)methyl]-1-(1H-tetrazol-5-yl)piperidine], the figure is 5.00 to 6.00; as for `CC(C)(c1ccc(Cl)c(Cl)c1)c1cnc(SCc2ccc(Cl)cc2C(=O)O)n1-c1ccc(F)cc1` [5-chloro-2-[({5-[1-(3,4-dichlorophenyl)-1-methylethyl]-1-(4-fluorophenyl)-1H-imidazol-2-yl}thio)methyl]benzoic acid], 6.00 to 7.00.
As for `Fc1ccc(CSc2nnc(Cc3ccc(Cl)c(Cl)c3)n2-c2ccc(F)cc2)cc1` [Example 17], under setting [2], the pEC50 is 5.00 to 6.00.
`COc1cc(C(C)(C)c2cnc(SCc3ccc(S(=O)(=O)NC(=O)NCCC(=O)O)cc3Cl)n2-c2ccc(F)cc2)ccc1Cl` [N-[({[3-chloro-4-({[5-{1-[4-chloro-3-(methyloxy)phenyl]-1-methylethyl}-1-(4-fluorophenyl)-1H-imidazol-2-yl]thio}methyl)phenyl]sulfonyl}amino)carbonyl]-beta-alanine]: the negative logarithm of the EC50 (pEC50) under setting [1] is 6.00 to 7.00.
Take `COc1ccc(C(C)(C)c2cnc(SCc3ccc(Cl)c(Cl)c3)n2-c2ccc(F)cc2)cc1OC` [5-{1-[3,4-bis(methyloxy)phenyl]-1-methylethyl}-2-{[(3,4-dichlorophenyl)methyl]thio}-1-(4-fluorophenyl)-1H-imidazole]: the negative logarithm of the EC50 (pEC50) under setting [1] was more than 7.00.
As for `CC(C)(c1ccc2c(c1)OCO2)c1cnc(SCc2ccc(F)cc2Cl)n1-c1ccc(F)cc1` [5-[1-(1,3-benzodioxol-5-yl)-1-methylethyl]-2-{[(2-chloro-4-fluorophenyl)methyl]thio}-1-(4-fluorophenyl)-1H-imidazole], under setting [1], the pEC50 was 6.00 to 7.00.
For `CC(C)(c1ccc(Cl)c(Cl)c1)c1cnc(SCc2ccc(Cl)c(C(=N)N)c2)n1-c1ccc(F)cc1` [2-chloro-5-[({5-[1-(3,4-dichlorophenyl)-1-methylethyl]-1-(4-fluorophenyl)-1H-imidazol-2-yl}thio)methyl]benzenecarboximidamide], the pEC50 under setting [1] was 5.00 to 6.00.
For the compound `CC(C)(c1ccc(Cl)c(Cl)c1)c1cnc(S(=O)(=O)N[C@H](CO)c2ccccc2)n1-c1ccc(F)cc1` [5-[1-(3,4-dichlorophenyl)-1-methylethyl]-1-(4-fluorophenyl)-N-[(1S)-2-hydroxy-1-phenylethyl]-1H-imidazole-2-sulfonamide], under setting [1], the negative-log EC50 (pEC50) is 5.00 to 6.00.
The same measure, in the same setting: the value for `CC(C)(c1ccc(Cl)c(Cl)c1)c1cnc(COc2ccc(C#N)cn2)n1-c1ccc(F)cc1` [6-[({5-[1-(3,4-dichlorophenyl)-1-methylethyl]-1-(4-fluorophenyl)-1H-imidazol-2-yl}methyl)oxy]pyridine-3-carbonitrile] was 6.00 to 7.00; that for `CC(C)(c1ccc(Cl)c(Cl)c1)c1cnc(SCc2ccc(C(=O)O)c(F)c2)n1-c1ccc(F)cc1` [4-[({5-[1-(3,4-dichlorophenyl)-1-methylethyl]-1-(4-fluorophenyl)-1H-imidazol-2-yl}thio)methyl]-2-fluorobenzoic acid] was 6.00 to 7.00.
`CN(C)CCOc1ccc(C(C)(C)c2cnc(SCc3c(F)cccc3Cl)n2-c2ccc(F)cc2)cc1` [2-[(4-{1-[2-{[(2-chloro-6-fluorophenyl)methyl]thio}-1-(4-fluorophenyl)-1H-imidazol-5-yl]-1-methylethyl}phenyl)oxy]-N,N-dimethylethanamine]: the pEC50 under setting [1] was 5.00 to 6.00.
As to `COc1ccc(C(C)(C)c2cnc(S(=O)(=O)CCc3ccc(F)c(Cl)c3)n2-c2ccc(F)cc2)cc1OC` [5-{1-[3,4-bis(methyloxy)phenyl]-1-methylethyl}-2-{[2-(3-chloro-4-fluorophenyl)ethyl]sulfonyl}-1-(4-fluorophenyl)-1H-imidazole], the negative-log EC50 (pEC50) under setting [1] is more than 7.00.
On the same count and under the same terms, as for `CC(C)(c1ccc(Cl)c(Cl)c1)c1cnc(SCc2ccc(F)cc2Cl)n1-c1cc(F)cc(F)c1` [2-{[(2-chloro-4-fluorophenyl)methyl]thio}-5-[1-(3,4-dichlorophenyl)-1-methylethyl]-1-(3,5-difluorophenyl)-1H-imidazole], the figure is 6.00 to 7.00; as for `COc1ccc(C(C)(C)c2cnc(SCc3c(F)cc(-c4nnn[nH]4)cc3F)n2-c2ccc(F)cc2)cc1Cl` [5-[4-({[5-{1-[3-chloro-4-(methyloxy)phenyl]-1-methylethyl}-1-(4-fluorophenyl)-1H-imidazol-2-yl]thio}methyl)-3,5-difluorophenyl]-1H-tetrazole], more than 7.00; as for `CC(C)(c1ccc(Cl)cc1)c1cnc(SCc2c(F)cccc2Cl)n1-c1ccc(F)cc1` [2-{[(2-chloro-6-fluorophenyl)methyl]thio}-5-[1-(4-chlorophenyl)-1-methylethyl]-1-(4-fluorophenyl)-1H-imidazole], 6.00 to 7.00.
In the case of `CC(C)(c1ccc(Cl)c(Cl)c1)c1cnc(SCc2c(Cl)cccc2C(=O)O)n1-c1ccc(F)cc1` [3-chloro-2-[({5-[1-(3,4-dichlorophenyl)-1-methylethyl]-1-(4-fluorophenyl)-1H-imidazol-2-yl}thio)methyl]benzoic acid], the pEC50 under setting [1] was 6.00 to 7.00.
Consider `COc1ccc(C(C)(C)c2cnc(CNc3ccc(Cl)c(Cl)c3)n2-c2ccc(F)cc2)cc1OC` [N-{[5-{1-[3,4-bis(methyloxy)phenyl]-1-methylethyl}-1-(4-fluorophenyl)-1H-imidazol-2-yl]methyl}-3,4-dichloroaniline], for which the pEC50 under setting [1] was more than 7.00.
The same measure, in the same setting: as for `CC(C)(O)c1ccc(C(C)(C)c2cnc(SCc3ccc(F)cc3Cl)n2-c2ccc(F)cc2)cc1Cl` [2-(2-chloro-4-{1-[2-{[(2-chloro-4-fluorophenyl)methyl]thio}-1-(4-fluorophenyl)-1H-imidazol-5-yl]-1-methylethyl}phenyl)propan-2-ol], the figure is 6.00 to 7.00; as for “2-chloro-5-{1-[2-{(2-chloro-4- fluorophenyl)methyl]thio}-1-(4-fluorophenyl)- 1H-imidazol-5-yl]-1- methylethyl}benzenesulfonamide”, 6.00 to 7.00; as for `COc1c(Cl)cc(C(C)(C)c2cnc(SCc3ccc(F)c(S(N)(=O)=O)c3)n2-c2ccc(F)cc2)cc1Cl` [5-({[5-{1-[3,5-dichloro-4-(methyloxy)phenyl]-1-methylethyl}-1-(4-fluorophenyl)-1H-imidazol-2-yl]thio}methyl)-2-fluorobenzenesulfonamide], more than 7.00.
On the same count and under the same terms, the value for `CN(C)CCn1c(C(C)(C)c2ccc(Cl)c(Cl)c2)cnc1SCc1c(F)cccc1Cl` [2-(2-{[(2-chloro-6-fluorophenyl)methyl]thio}-5-[1-(3,4-dichlorophenyl)-1-methylethyl]-1H-imidazol-1-yl)-N,N-dimethylethanamine] was 5.00 to 6.00; that for `COc1cc(-n2c(C(C)(C)c3ccc(Cl)c(OC)c3)cnc2SCc2ccc(S(N)(=O)=O)cc2Cl)ccc1F` [3-chloro-4-{[(5-{1-[4-chloro-3-(methyloxy)phenyl]-1-methylethyl}-1-[4-fluoro-3-(methyloxy)phenyl]-1H-imidazol-2-yl)thio]methyl}benzenesulfonamide] was more than 7.00; that for `CC(C)(C)OC(=O)N1CCC(OCc2ncc(C(C)(C)c3ccc(Cl)c(Cl)c3)n2-c2ccc(F)cc2)CC1` [1,1-dimethylethyl 4-[({5-[1-(3,4-dichlorophenyl)-1-methylethyl]-1-(4-fluorophenyl)-1H-imidazol-2-yl}methyl)oxy]piperidine-1-carboxylate] was 5.00 to 6.00.
With `CC(C)(c1ccc(Cl)c(Cl)c1)c1cnc(SCc2cc(C#N)ccc2Cl)n1-c1ccc(F)cc1` [4-chloro-3-[({5-[1-(3,4-dichlorophenyl)-1-methylethyl]-1-(4-fluorophenyl)-1H-imidazol-2-yl}thio)methyl]benzonitrile], the pEC50 under setting [1] is more than 7.00.
As for `COc1ccc(Cc2nnc(SCc3cccc(C(F)(F)F)c3F)n2-c2ccc(F)cc2)cc1OC` [Example 30], the pEC50 under setting [2] is more than 7.00.
With `CC(C)(c1ccc(Cl)c(Cl)c1)c1cnc(SCc2ccc(S(N)(=O)=O)c(F)c2)n1-c1ccc(F)cc1` [4-[({5-[1-(3,4-dichlorophenyl)-1-methylethyl]-1-(4-fluorophenyl)-1H-imidazol-2-yl}thio)methyl}-2-fluorobenzenesulfonamide], the pEC50 under setting [1] is 6.00 to 7.00.
Consider `CC(C)(c1ccc(Cl)c(Cl)c1)c1cnc(SCc2ccc(C(=O)NCC(F)(F)F)cc2F)n1-c1ccc(F)cc1` [4-[({5-[1-(3,4-dichlorophenyl)-1-methylethyl]-1-(4-fluorophenyl)-1H-imidazol-2-yl}thio)methyl]-3-fluoro-N-(2,2,2-trifluoroethyl)benzamide], for which the pEC50 under setting [1] was 6.00 to 7.00.
Still for that read-out and setting: as for `CC(C)(c1ccc(Cl)c(Cl)c1)c1cnc(SCc2ccc(C(N)=O)c(F)c2)n1-c1ccc(F)cc1` [4-[({5-[1-(3,4-dichlorophenyl)-1-methylethyl]-1-(4-fluorophenyl)-1H-imidazol-2-yl}thio)methyl]-2-fluorobenzamide], the figure is 6.00 to 7.00.
